Laboratory results from patent publication US7863315B2, “2-indolinone derivatives as selective histone deacetylase inhibitors” (Shenzhen Chipscreen Biosciences, Ltd., priority 2008, dated 2011).

Columns and labels:
Assay type in all cases: cell-based
[1] = test system: HDAC class I (p21 reporter gene); assay: HDAC subtype reporter gene assay, p21-promoter luciferase in HeLa cells; settings: Homo sapiens, M-HeLa, read-out: % of SAHA Response for HDAC class I at 10 μM (p21 reporter gene), 24 hours
Method: (§1) Measurement of inhibition of HDAC subtypes activity in cells by reporter gene assay: HDAC subtype selectivity inhibition assay of tested compounds was carried out by several reporter gene assays experiments. Briefly, HeLa cells were seeded in 96-well plates the day before transfection to give a confluence of 50-80%. Cells were transfected with one of reporter gene plasmids containing a promoter sequences or response elements upstream of a luciferase gene construct using FuGene6 transfection reagent according to the manufacturer's instructions (Roche). The promoters or response elements including p21-promoter, gdf11-promoter, MEF-binding element (MEF2), Nur77-promoter were fused upstream to the luciferase gene reporter construct. For normalizing the transfection efficiency, a GFP expression plasmid was cotransfected. Cells were allowed to express protein for 24 hours followed by addition of individual compounds or the vehicle (DMSO). 24 hours later, the cells were harvested and the luciferase assays were performed using the luciferase assay kit according to the manufacturer's instructions (Promega). To normalize the data from the luciferase assays, GFP activity from transfected cells was measured in a microtiter-plate reading fluorimeter capable of excitation at a wavelength at 485 nm and detection of emitted light at 527 nm.

[2] = test system: HDAC3 (gdf11 reporter gene); assay: HDAC subtype reporter gene assay, gdf11-promoter luciferase in HeLa cells; settings: Homo sapiens, M-HeLa, read-out: % of SAHA Response for HDAC3 at 10 μM (gdf11 reporter gene), 24 hours
Method: as §1

[3] = test system: HDAC4/5 (MEF2 reporter gene); assay: HDAC subtype reporter gene assay, MEF-binding element (MEF2) luciferase in HeLa cells; settings: Homo sapiens, M-HeLa, read-out: % of SAHA Response for HDAC4/5 at 10 μM (MEF2 reporter gene), 24 hours
Method: as §1

[4] = test system: HDAC7 (Nur77 reporter gene); assay: HDAC subtype reporter gene assay, Nur77-promoter luciferase in HeLa cells; settings: Homo sapiens, M-HeLa, read-out: % of SAHA Response for HDAC7 at 10 μM (Nur77 reporter gene), 24 hours
Method: as §1

lysine acetylation = assay: ELISA assay of acetylation of lysine in HeLa cells; settings: Homo sapiens, M-HeLa, 24 hours
From the text: Measurement of acetylation activity in cells on substrates:
ELISA Assay of Acetylation of Lysine
This assay is used to measure in vivo inhibition of HDAC6 in a cytoblot assay.
Materials and Reagent: • 1. 24-well tissue culture • 2. DMEM Medium containing 10% FBS • 3. 96-well white plate • 4. HeLa cell line • 5. M-PER Mammalian Protein Extraction Reagent (Pierce) • 6. Bradford assay reagent • 7. Acetylated-lysine polyclonal Antibody (Cell Signaling) • 8. HRP-labeled anti-rabbit IgG (Upstate) • 9. Coating Buffer: 15 mM Na2CO3, 35 mM NaHCO3 (pH 9.6) • 10. 10×PBS: 0.58M Na2HPO4, 0.17M NaH2PO4, 0.68M NaCl (pH 7.4) • 11. Wash Buffer:1×PBS containing 0.05% Tween-20 (PBST) • 12. Blocking Buffer:10 mg/ml bocine serum albumin (BSA) in PBS • 13. Antibody Dilution Buffer: 5 mg/ml BSA in PBST • 14. Enhanced chemiluminescence (ECL) (Amersham)
Procedure for performing the assay in 96-well plate: • 1. HeLa cells were seeded at a density of 60000 cells/500 μl/well in 24-well plate and incubated at 37° C. for 24 hours. • 2. Compounds were added and incubated for 24 hours at 37° C. • 3. Culture medium was removed, then washes the cells twice with ice-cold PBS. • 4. Add 100 μl/well of Protein Extraction Reagent and gently shake the mixture for 5 minutes. • 5. Collect the lysate to a 96-well plate respectively. Determine the concentration of protein by Bradford assay. • 6. Coat the wells of a 96-well white plate with 100 μl/well of 2.5 μg whole cell protein in Coating Buffer by incubating overnight at 4° C. • 7. Discard the uncoated proteins and wash the coated wells three times with 200 μl/well of PBST. • 8. Block coated wells by incubating the plate with 200 μl/well of Blocking Buffer for 1 hour at 37° C. • 9. Wells were aspirated and washed three times with 200 μl/well of PBST. • 10. After aspirating, 50 μl/well of Antibody Dilution Buffer containing acetylated-lysine polyclonal antibody (1:1000) were added to each well and incubated for 2 hour at 37° C. • 11. Wells were aspirated and washed three times with 200 μl/well of PBST. • 12. 50 μl/well of Antibody Dilution Buffer containing HRP-labeled anti-rabbit IgG (1:2000) were added to each well and incubated for 2 hour at 37° C. • 13. Wells were aspirated and washed three times with 200 μl/well of PBST. • 14. Wells were washed three times with 200 μl/well of purified water. • 15. Add 50 μl/well of ECL mixture, then read the plates on the plate reader.

[5] = test system: Hut-78 human T lymphoma cell line; assay: Anti-cell proliferation (MTS), Hut-78; settings: HuT78, 72 hours
Method: (§2) Measurement of in vivo cell proliferation:
(§3) Tumor cells were trypsinized and plated into 96-well plates at 3,000 per well and incubated in complete medium with 10% FBS for 24 hours. Compounds were added over a final concentration range of 100 μmol/L to 100 nmol/L in 0.1% DMSO and incubated for 72 hours in complete medium. The effects on proliferation were determined by addition of MTS reagent (Promega) according to the instruction, incubation for 2 hours at 37° C. in CO2 incubator, and record the absorbance at 490 nm using an ELISA plate reader.

[6] = test system: HL60 human leukemia cell line; assay: Anti-cell proliferation (MTS), HL60; settings: HL-60, 72 hours
Method: as §2, §3

[7] = test system: HeLa human cervical cancer cell line; assay: Anti-cell proliferation (MTS), HeLa; settings: 72 hours
Method: as §2, §3

[8] = test system: A549 human lung cancer cell line; assay: Anti-cell proliferation (MTS), A549; settings: 72 hours
Method: as §2, §3

| SMILES | Emax at 10 µM [1] [%] | Emax at 10 µM [2] [%] | Emax at 10 µM [3] [%] | Emax at 10 µM [4] [%] | fold induction at 10 µM (lysine acetylation) | GI50 [5] [µM] | GI50 [6] [µM] | GI50 [7] [µM] | GI50 [8] [µM] |
| --- | --- | --- | --- | --- | --- | --- | --- | --- | --- |
| Cc1[nH]c(/C=N/N=C2\C(=O)Nc3ccc(F)cc32)c(C)c1C(=O)NCCCCCCCC(=O)Nc1ccc(F)cc1N [Example 27, 8-(5-(((5-fluoro-2-oxoindolin-3-ylidene)hydrazono)methyl)-2,4-dimethyl-1H-pyrrole-3-carboxamido)-N-(2-amino-4-fluorophenyl)octanamide] | 8 | 6 | 37 | 6 | 2.13 | 6.92 | 5.89 | > 100 | > 100 |
| Cc1[nH]c(/C=N/N=C2\C(=O)Nc3ccc(F)cc32)c(C)c1C(=O)NCCCCCCCC(=O)Nc1ccccc1N [Example 28, 8-(5-(((5-fluoro-2-oxoindolin-3-ylidene)hydrazono)methyl)-2,4-dimethyl-1H-pyrrole-3-carboxamido)-N-(2-aminophenyl)octanamide] | 36 | 26 | 32 | 16 | 1.7 | 4.27 | 4.37 | 28.2 | 36.3 |
| Nc1cc(F)ccc1NC(=O)CCCCCCCNC(=O)c1ccc(/C=N/N=C2\C(=O)Nc3ccc(F)cc32)cc1 [Example 36, 8-(4-(((5-fluoro-2-oxoindolin-3-ylidene)hydrazono)methyl)benzamido)-N-(2-amino-4-fluorophenyl)octanamide] | 9 | 6 | 50 | 7 | 1.35 | 10.7 | 14.8 | 55 | 30.2 |
| Nc1ccccc1NC(=O)CCCCCNC(=O)c1ccc(/C=C2\C(=O)Nc3ccc(F)cc32)cc1 [Example 39, 6-(4-((5-fluoro-2-oxoindolin-3-ylidene)methyl)benzamido)-N-(2-aminophenyl)hexanamide] | 67 | 41 | 45 | 29 | 1.73 | 4.17 | 4.17 | 22.9 | 28.8 |
| Nc1cc(F)ccc1NC(=O)CCCCCNC(=O)c1ccc(/C=C2\C(=O)Nc3ccc(F)cc32)cc1 [Example 40, 6-(4-((5-fluoro-2-oxoindolin-3-ylidene)methyl)benzamido)-N-(2-amino-4-fluorophenyl)hexanamide] | 19 | 13 | 56 | 9 | 1.5 | 4.17 | 5.75 | 33.9 | 36.3 |
| Nc1ccccc1NC(=O)CCCCCNC(=O)c1cccc(/C=C2\C(=O)Nc3ccc(F)cc32)c1 [Example 44, 6-(3-((5-fluoro-2-oxoindolin-3-ylidene)methyl)benzamido)-N-(2-aminophenyl)hexanamide] | 97 | 48 | 85 | 35 | 1.42 | 4.37 | 2.95 | 11 | 19.5 |
| Nc1cc(F)ccc1NC(=O)CCCCNC(=O)c1cccc(/C=C2\C(=O)Nc3ccc(F)cc32)c1 [Example 50, 5-(3-((5-fluoro-2-oxoindolin-3-ylidene)methyl)benzamido)-N-(2-amino-4-fluorophenyl)pentanamide] | 7 | 4 | 43 | 12 | 1.08 | 6.76 | 3.98 | 20.9 | 35.5 |
| Nc1ccccc1NC(=O)CCCCCCCNC(=O)c1cccc(/C=C2\C(=O)Nc3ccc(F)cc32)c1 [Example 54, 8-(3-((5-fluoro-2-oxoindolin-3-ylidene)methyl)benzamido)-N-(2-aminophenyl)octanamide] | 72 | 52 | 53 | 25 | 1.34 | 3.89 | 2.46 | 18.2 | 24 |
| O=C(CCCCCCCNC(=O)c1cccc(/C=C2\C(=O)Nc3ccc(F)cc32)c1)NO [Example 56, 8-(3-((5-fluoro-2-oxoindolin-3-ylidene)methyl)benzamido)-N-hydroxyoctanamide] | 65 | 56 | 62 | 27 | 1.7 | 4.57 | 5.62 | 17.4 | 28.8 |
